Legend:
SOS1/KRAS-G12D = SOS1/KRAS-G12D (Homo sapiens (Human), UniProt Q07889); test: SOS1/KRAS-G12D binding inhibition assay (AlphaScreen); conditions: GST-SOS1 and 6*His KRAS-G12D, read-out: KrasG12D/SOS1 binding IC50
Outline: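 GST-SOS1 (5 nM) pre-incubated 30 min with His6-KRAS-G12D (50 nM) in HEPES pH 7.4, NaCl, DTT, MgCl2, Tween-20, BSA; compound in 2% DMSO then added for 30 min at 4° C. GSH donor and Ni-NTA acceptor AlphaScreen beads, 2 h at 4° C; background-corrected % inhibition versus DMSO, IC50 by variable-slope nonlinear regression.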

[1] = test system: Phospho-ERK1/2 in DLD1 cells; test: Phospho-ERK1/2 expression inhibition in DLD1 cells; type: cell-based; conditions: Homo sapiens, DLD-1, 4 hours, read-out: DLD1 pERK IC50
Outline: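 DLD1 cells (15,000/well) were plated overnight, then exposed to compounds for 4 h at 37 °C. Cells were formaldehyde-fixed and methanol-permeabilized. Phospho-ERK1/2 was detected in-cell with rabbit anti-phospho-ERK1/2 and an IRDye 800CW secondary antibody, imaged on a LI-COR Odyssey.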

K562 cells = test: Cell growth inhibition of K562 cells (CellTiter-Glo); type: cell-based; conditions: Homo sapiens, 120 h, 5 days

Sequence of SOS1/KRAS-G12D (Q07889 564-1049 limits assumed): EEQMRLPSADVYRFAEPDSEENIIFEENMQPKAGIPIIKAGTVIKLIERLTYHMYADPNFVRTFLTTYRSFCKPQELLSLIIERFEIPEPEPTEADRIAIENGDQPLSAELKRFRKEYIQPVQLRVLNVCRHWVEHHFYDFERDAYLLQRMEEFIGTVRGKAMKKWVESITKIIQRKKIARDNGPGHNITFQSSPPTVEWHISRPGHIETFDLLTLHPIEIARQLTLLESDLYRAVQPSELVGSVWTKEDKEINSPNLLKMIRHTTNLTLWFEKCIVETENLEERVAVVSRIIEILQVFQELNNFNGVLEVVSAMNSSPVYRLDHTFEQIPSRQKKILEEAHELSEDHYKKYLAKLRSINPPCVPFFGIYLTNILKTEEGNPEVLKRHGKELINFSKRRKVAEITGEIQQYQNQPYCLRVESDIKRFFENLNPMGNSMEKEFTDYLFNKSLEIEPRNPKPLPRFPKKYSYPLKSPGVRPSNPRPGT

| Structure (SMILES) | IC50 (SOS1/KRAS-G12D) | IC50 [1] | GI50 (K562 cells) |
| --- | --- | --- | --- |
| Cc1c([C@@H](C)Nc2ccnc3ccc(N4C[C@H](C)NC[C@H]4C)cc23)cccc1C(F)(F)F [Compound 54, 6-((2R,5S)-2,5-dimethylpiperazin-1-yl)-N-((R)-1-(2-methyl-3-(trifluoromethyl)phenyl)ethyl)quinolin-4-amine] | 0.01 to 0.1 µM | > 0.5 µM | 0.1 to 0.5 µM |
| COC1(c2ccc3nccc(N[C@H](C)c4cccc(C(F)F)c4F)c3c2)CCN(C(C)=O)CC1 [Compound 72, (R)-1-(4-(4-((1-(3-(difluoromethyl)-2-fluorophenyl)ethyl)amino)quinolin-6-yl)-4-methoxypiperidin-1-yl)ethan-1-one] | ≤ 0.01 µM | ≤ 0.15 µM | ≤ 0.1 µM |
| CO[C@]1(c2ccc3nccc(N[C@H](C)c4cccc(C(F)F)c4F)c3c2)CCN(C(C)=O)C1 [Compound 76, 1-((S)-3-(4-(((R)-1-(3-(difluoromethyl)-2-fluorophenyl)ethyl)amino)quinolin-6-yl)-3-methoxypyrrolidin-1-yl)ethan-1-one] | ≤ 0.01 µM | ≤ 0.15 µM | ≤ 0.1 µM |
| CO[C@@]1(c2ccc3nccc(N[C@H](C)c4cccc(C(F)F)c4F)c3c2)CCN(C(=O)C(C)C)C1 [Compound 91, 1-((R)-3-(4-(((R)-1-(3-(difluoromethyl)-2-fluorophenyl)ethyl)amino)quinolin-6-yl)-3-methoxypyrrolidin-1-yl)-2-methylpropan-1-one] | ≤ 0.01 µM | > 0.5 µM | 0.1 to 0.5 µM |
| COC(=O)N1CCC(OC)(c2ccc3nccc(N[C@H](C)c4cccc(C(F)F)c4F)c3c2)CC1 [Compound 100, methyl (R)-4-(4-((1-(3-(difluoromethyl)-2-fluorophenyl)ethyl)amino)quinolin-6-yl)-4-methoxypiperidine-1-carboxylate] | ≤ 0.01 µM | 0.15 to 0.5 µM | 0.1 to 0.5 µM |
| CO[C@@]1(c2ccc3nccc(N[C@H](C)c4cccc(C#N)c4C)c3c2)CCN(C(C)=O)C1 [Compound 87, 3-((R)-1-((6-((R)-1-acetyl-3-methoxypyrrolidin-3-yl)quinolin-4-yl)amino)ethyl)-2-methylbenzonitrile] | > 0.1 µM | > 0.5 µM | > 0.5 µM |
| CC(=O)N1C[C@H](C)N(c2ccc3nccc(N[C@H](C)c4cccc(C(F)(F)F)c4C)c3c2)C[C@H]1C [Compound 66, 1-((2R,5S)-2,5-dimethyl-4-(4-(((R)-1-(2-methyl-3-(trifluoromethyl)phenyl)ethyl)amino)quinolin-6-yl)piperazin-1-yl)ethan-1-one] | > 0.1 µM | > 0.5 µM | > 0.5 µM |
| Cc1c([C@@H](C)Nc2ccnc3ccc(N4CCN(c5cnn(C)c5)CC4)cc23)cccc1C(F)(F)F [Compound 24, (R)-6-(4-(1-methyl-1H-pyrazol-4-yl)piperazin-1-yl)-N-(1-(2-methyl-3-(trifluoromethyl)phenyl)ethyl)quinolin-4-amine] | > 0.1 µM | > 0.5 µM | 0.1 to 0.5 µM |
| CO[C@@]1(c2ccc3nccc(N[C@H](C)c4cccc(C(F)F)c4F)c3c2)CCN(C(=O)N(C)C)C1 [Compound 99, (R)-3-(4-(((R)-1-(3-(difluoromethyl)-2-fluorophenyl)ethyl)amino)quinolin-6-yl)-3-methoxy-N,N-dimethylpyrrolidine-1-carboxamide] | ≤ 0.01 µM | 0.15 to 0.5 µM | ≤ 0.1 µM |
| CNC(=O)N1CC[C@@](OC)(c2ccc3nccc(N[C@H](C)c4cccc(C(F)F)c4F)c3c2)C1 [Compound 101, (R)-3-(4-(((R)-1-(3-(difluoromethyl)-2-fluorophenyl)ethyl)amino)quinolin-6-yl)-3-methoxy-N-methylpyrrolidine-1-carboxamide] | ≤ 0.01 µM | > 0.5 µM | 0.1 to 0.5 µM |
| Cc1c([C@@H](C)Nc2ccnc3ccc(N4CC5CC(C4)N5)cc23)cccc1C(F)(F)F [Compound 58, 6-(3,6-diazabicyclo[3.1.1]heptan-3-yl)-N-((R)-1-(2-methyl-3-(trifluoromethyl)phenyl)ethyl)quinolin-4-amine] | 0.01 to 0.1 µM | > 0.5 µM | 0.1 to 0.5 µM |
